{"source": "patent US11378572B2", "about": "“Therapeutic agent for immune cell migration-caused disease and method for screening same” (ZYMEDI CO., LTD., priority 2017, dated 2022)", "key": {"[1]": {"test_system": "CCl4 liver fibrosis animal", "test": "CCl4 (carbon tetrachloride)-induced liver fibrosis animal model", "type": "in vivo, Actin-DsRed mice", "experimental": "Hepatocytes appear red in Actin-DsRed mice (Stock no. #006051, Jackson Laboratory (Bar Harbor, USA)). In order to induce liver fibrosis in this mouse, CCl4 (carbon tetrachloride) was dissolved in corn oil and injected intraperitoneally twice a week at a concentration of 20% for a total of 6 weeks. Three weeks after start of CCl4 administration, vehicle and BC-KI-00053 (100 mg/kg) were administered orally, daily for three weeks. For vehicle, corn oil:polyethylene glycol 400:Tween 80:methyl cellulose (1%)=20:30:1:49 was used.\nThe degree of fibrosis on the surface and inside (area with a depth of 30-50 μm) of liver was detected by the Second Harmonic Generation (SHG) technique of intravial imaging (Excitation: 780 nm, Detection: 390 nm)."}, "[2]": {"test_system": "liver ischemia-reperfusion injury model", "test": "Liver ischemia-reperfusion injury model", "type": "in vivo, CX3CR1-GFP mice", "details": "100 mg/kg oral once daily, 3 days; 24 hours of reperfusion", "experimental": "A liver ischemia-reperfusion injury model was prepared using CX3CR1-GFP mice to investigate the effect of inhibitors of KRS translocation to the plasma membrane on the monocyte infiltration during ischemic immune responses. Monocytes, macrophages and Kupffer's cells appear green in CX3CR1-GFP mice. Mice were orally administered with vehicle or BC-KI-00053 (100 mg/kg, dissolved in vehicle, once daily) for a total of three days beginning two days before imaging (D-2, D-1, D-0). For vehicle, corn oil:polyethylene glycol 400: Tween 80: methyl cellulose (1%)=20:30:1:49 was used. On day 3 of oral administration (D-0), triad (bile duct, hepatic artery, […]) occlusion was performed using a 6-0 suture as shown in FIG. 8a. Triad occlusion was performed for 30 minutes to induce acute inflammation, and 3 g of Eppendorf tubes were suspended from both ends of the suture. Suture was removed and the ischemic inflammation site was observed immediately after reperfusion (0 hour) and 24 hours later. At this time, blood vessels were labeled with Alexa Flour 555-bound anti-CD31 antibody for repeated imaging (identifiable as red). Two-photon microscope was used as an imaging equipment."}, "RAW 264.7 cells": {"test_system": "RAW 264.7 cells", "test": "Transwell migration assay of monocytes/macrophages", "type": "cell-based", "details": "laminin 421 1 μg/ml, 30 nM-3 μM, 24 hours, concentration-dependent", "experimental": "Among several extracellular matrix (ECM), it was examined which ECM promotes the migration and infiltration of immune cells, typically monocytes/macrophages. A transwell migration assay was performed using collagen (Col), fibronectin (FN) and laminin (LN) as extracellular matrices, and detailed methods were as follows. Transwells (Corning, #3421-5 mm) were coated with gelatin (0.5 mg/ml) and RAW 264.7 cells (1×10^5 cells/well) were seeded into the top chambers. Serum free DMEM (500 μl) containing 10 μg/ml of laminin (laminin mixture, Biolamina), fibronectin or collagen, respectively, was placed in the bottom chambers. After 24 hours, cells were fixed with 70% methanol for 30 minutes and stained with 50% hematoxylin for 30 minutes. After removing non-migrating cells from the top of the membrane with a cotton swab, the membrane was taken and mounted on the slide. Migrating cells on the underside of the membrane were observed and quantified under a high magnification microscope.\nEffect of laminin subtypes on the immune cell migration and infiltration was evaluated. A transwell migration assay was performed in the same manner as in Example 1 using LN111, LN211, LN221, LN411, LN421, LN511, and LN521 as various laminin subtype proteins (purchased from Biolamina). Specific sequences of laminin subtypes are referred to α4 chain of SEQ ID NO:4, α2 chain of SEQ ID NO: 10, α5 chain of SEQ ID NO: 11, β2 chain of SEQ ID NO:6, β1 chain of SEQ ID NO: 12, γ1 chain of SEQ ID NO: 8. according to the chain forming each laminin subtype,\nFor each of the transformed macrophages, a transwell migration assay was performed in the same manner as in Example 1 using 1 μg/ml of laminin 421.\nThus identified agents as inhibiting the translocation of KRS to the plasma membrane was added to the LN421-treated macrophages to perform a transwell migration assay. […] Migrating cells on the underside of the membrane were observed and quantified under a high magnification microscope. […]"}, "[3]": {"details": "CCl4 6 weeks, BC-KI-00053 100 mg/kg oral daily for 3 weeks"}, "[4]": {"details": "normal animal (corn oil) + BC-KI-00053 100 mg/kg oral daily 3 weeks"}}, "note": "Entries after “also recorded” stand apart in the source; their conditions may differ."}
{"smiles": "COc1ccc(CCN(Cc2ccc(C(=O)O)cc2)c2nc3cccc(F)c3s2)cc1", "note": "[BC-KI-00053, 4-({(7-fluorobenzo[d]thiazol-2-yl)[2-(4-methoxyphenyl)ethyl]amino}methyl)benzoic acid]", "values": [{"measurement": "fibrosis in the surface and inside the liver (SHG imaging)", "setting": "[1]; [3]", "result": "greatly reduced"}, {"measurement": "hepatocyte necrosis", "setting": "[1]; [3]", "result": "noticeably reduced"}, {"measurement": "other symptoms in the liver", "setting": "[1]; [4]", "result": "no other symptoms"}, {"measurement": "weight loss", "setting": "[1]; [4]", "result": "no weight loss"}, {"measurement": "in vivo tolerability", "setting": "[1]; normal animal + BC-KI-00053 100 mg/kg", "result": "innocuous"}, {"measurement": "monocyte/macrophage infiltration into occluded liver area", "setting": "[2]", "result": "significantly reduced"}, {"measurement": "LN421-specific monocyte/macrophage migration", "setting": "RAW 264.7 cells", "result": "noticeably suppressed; also recorded: significantly inhibited"}]}
